From US20240124442A1, “TRICYCLIC-AMIDO-BICYCLIC PRMT5 INHIBITORS” (AMGEN INC., priority 2021, published 2024)

Key:
HCT116 WT cells = test: HCT116 WT (parent) cell line proliferation / cell viability (CellTiter-Glo, 6 days); format: cell-based; conditions: Homo sapiens, HCT-116, 144 h, 6 days treatment
How it was run: (§1)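 Isogenic HCT116 parent and MTAP-knockout cells in RPMI 1640 + 10% FBS, plated overnight, then exposed to compound for 6 days (37 °C, 5% CO2). Viability by CellTiter-Glo luminescence. Dilutions: 8–9 points from 1 or 10 μM (1:3), or 22 points from 10 or 50 μM (1:2); IC50 by 4-parameter or Hill −1 fit.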

HCT116 MTAP null cells = test: HCT116 MTAP null cell line proliferation / cell viability (CellTiter-Glo, 6 days); format: cell-based; conditions: 144 h; HCT116 MTAP null cells, 6 days treatment, CellTiter-Glo cell viability; read-out: HCT-116 MTAP null IC50
How it was run: as §1

SMILES | IC50 (HCT116 WT cells) | IC50 (HCT116 MTAP null cells)
CN(C(=O)c1ccc2nc(N)c3cnn(C)c3c2c1)[C@@H]1COc2cc(-c3cnc4c(c3)CC(=O)N4)ccc21 [Example 644, 4-amino-N,1-dimethyl-N-((3S)-6-(2-oxo-2,3-dihydro-1H-pyrrolo[2,3-b]pyridin-5-yl)-2,3-dihydro-1-benzofuran-3-yl)-1H-pyrazolo[4,3-c]quinoline-8-carboxamide] | 3.56 µM | 0.027 µM
CN(C(=O)c1ccc2nc(N)c3cnn(C)c3c2c1)[C@@H]1COc2cc(-c3cc(C(F)(F)F)[nH]n3)ccc21 [Example 645, 4-amino-N,1-dimethyl-N-((3S)-6-(5-(trifluoromethyl)-1H-pyrazol-3-yl)-2,3-dihydro-1-benzofuran-3-yl)-1H-pyrazolo[4,3-c]quinoline-8-carboxamide] | 1.47 µM | 0.024 µM
CN(C(=O)c1ccc2nc(N)c3cnn(C)c3c2c1)[C@@H]1COc2cc(-c3cccc(C(F)(F)F)n3)ccc21 [Example 648, 4-amino-N,1-dimethyl-N-((3S)-6-(6-(trifluoromethyl)-2-pyridinyl)-2,3-dihydro-1-benzofuran-3-yl)-1H-pyrazolo[4,3-c]quinoline-8-carboxamide] | 1.17 µM | 0.03 µM
CN(C(=O)c1ccc2nc(N)c3cnn(C)c3c2c1)[C@@H]1COc2cc(-c3cccnc3C(F)(F)F)ccc21 [Example 649, 4-amino-N,1-dimethyl-N-((3S)-6-(2-(trifluoromethyl)-3-pyridinyl)-2,3-dihydro-1-benzofuran-3-yl)-1H-pyrazolo[4,3-c]quinoline-8-carboxamide] | 1.04 µM | 0.018 µM
CN(C(=O)c1ccc2nc(N)c3cnn(C)c3c2c1)[C@@H]1COc2cc(-c3cc(C(F)(F)F)nn3C)ccc21 [Example 654, 4-amino-N,1-dimethyl-N-((3S)-6-(1-methyl-3-(trifluoromethyl)-1H-pyrazol-5-yl)-2,3-dihydro-1-benzofuran-3-yl)-1H-pyrazolo[4,3-c]quinoline-8-carboxamide] | 1 µM | 0.01 µM
CN(C(=O)c1ccc2nc(N)c3cnn(C)c3c2c1)[C@@H]1COc2cc(-c3ccc4c(c3)OC(F)(F)O4)ccc21 [Example 657, 4-amino-N-((3S)-6-(2,2-difluoro-1,3-benzodioxol-5-yl)-2,3-dihydro-1-benzofuran-3-yl)-N,1-dimethyl-1H-pyrazolo[4,3-c]quinoline-8-carboxamide] | 1.71 µM | 0.037 µM
CN(C(=O)c1ccc2nc(N)c3cnn(C)c3c2c1)[C@@H]1COc2cc(-c3cc(F)cc(OC(F)F)c3)ccc21 [Example 659, 4-amino-N-((3S)-6-(3-(difluoromethoxy)-5-fluorophenyl)-2,3-dihydro-1-benzofuran-3-yl)-N,1-dimethyl-1H-pyrazolo[4,3-c]quinoline-8-carboxamide] | 1.28 µM | 0.025 µM
CN(C(=O)c1ccc2nc(N)c3cnn(C)c3c2c1)[C@@H]1COc2cc(-c3ccnc(OCC(F)(F)F)c3)ccc21 [Example 662, 4-amino-N,1-dimethyl-N-((3S)-6-(2-(2,2,2-trifluoroethoxy)-4-pyridinyl)-2,3-dihydro-1-benzofuran-3-yl)-1H-pyrazolo[4,3-c]quinoline-8-carboxamide] | 1.12 µM | 0.021 µM
CN(C(=O)c1cc2c3c(c(N)nc2cc1F)COC3)[C@@H]1COc2cc(-c3ccc(S(F)(F)(F)(F)F)cc3)ccc21 [Example 667, 4-amino-7-fluoro-N-methyl-N-((3S)-6-(4-(pentafluoro-lambda~6 ~- sulfanyl)phenyl)-2,3-dihydro-1-benzofuran-3-yl)-1,3-dihydrofuro[3,4-c]quinoline-8-carboxamide] | 7.07 µM | 0.383 µM
CN(C(=O)c1ccc2nc(N)c3cnn(C)c3c2c1)[C@@H]1COc2cc(-c3ccc(S(F)(F)(F)(F)F)cc3)ccc21 [Example 668, 4-amino-N,1-dimethyl-N-((3S)-6-(4-(pentafluoro-lambda~6~- sulfanyl)phenyl)-2,3-dihydro-1-benzofuran-3-yl)-1H-pyrazolo[4,3-c]quinoline-8-carboxamide] | 2.92 µM | 0.085 µM
COc1ccc2c(c1)OC[C@H]2N(C)C(=O)c1ccc2nc(N)c3cnn(C)c3c2c1 [Example 671, (S)-4-amino-N-(6-methoxy-2,3-dihydrobenzofuran-3-yl)-N,1-dimethyl-1H-pyrazolo[4,3-c]quinoline-8-carboxamide] | 4.29 µM | 0.034 µM
CN(C(=O)c1ccc2nc(N)c3cnn(C)c3c2c1)[C@@H]1COc2cc(OC3CC3)ccc21 [Example 672, (S)-4-amino-N-(6-cyclopropoxy-2,3-dihydrobenzofuran-3-yl)-N,1-dimethyl-1H-pyrazolo[4,3-c]quinoline-8-carboxamide 2,2,2-trifluoroacetate] | 3.52 µM | 0.044 µM

Stronger by IC50 (HCT116 WT cells), values ahead:

IC50 (HCT116 WT cells) | IC50 (HCT116 MTAP null cells) | SMILES
0.535 µM | 0.005 µM | CN(C(=O)c1ccc2nc(N)c3cnn(C)c3c2c1)[C@@H]1COc2cc(-c3ccc(F)nc3F)ccc21 [Example 642, 4-amino-N-((3S)-6-(2,6-difluoro-3-pyridinyl)-2,3-dihydro-1-benzofuran-3-yl)-N,1-dimethyl-1H-pyrazolo[4,3-c]quinoline-8-carboxamide]
0.228 µM | 0.005 µM | CN(C(=O)c1ccc2nc(N)c3cnn(C)c3c2c1)[C@@H]1COc2cc(-c3ccnc(F)c3F)ccc21 [Example 643, 4-amino-N-((3S)-6-(2,3-difluoro-4-pyridinyl)-2,3-dihydro-1-benzofuran-3-yl)-N,1-dimethyl-1H-pyrazolo[4,3-c]quinoline-8-carboxamide]
0.329 µM | 0.003 µM | CNC(=O)c1ccc(-c2ccc3c(c2)OC[C@H]3N(C)C(=O)c2ccc3nc(N)c4cnn(C)c4c3c2)cn1 [Example 646, 4-amino-N,1-dimethyl-N-((3S)-6-(6-(methylcarbamoyl)-3-pyridinyl)-2,3-dihydro-1-benzofuran-3-yl)-1H-pyrazolo[4,3-c]quinoline-8-carboxamide]
0.582 µM | 0.008 µM | CC(=O)Nc1ccc(-c2ccc3c(c2)OC[C@H]3N(C)C(=O)c2ccc3nc(N)c4cnn(C)c4c3c2)cn1 [Example 647, N-((3S)-6-(6-acetamido-3-pyridinyl)-2,3-dihydro-1-benzofuran-3-yl)-4-amino-N,1-dimethyl-1H-pyrazolo[4,3-c]quinoline-8-carboxamide]
0.447 µM | 0.008 µM | CN(C(=O)c1ccc2nc(N)c3cnn(C)c3c2c1)[C@@H]1COc2cc(-c3cnccc3C(F)(F)F)ccc21 [Example 650, 4-amino-N,1-dimethyl-N-((3S)-6-(4-(trifluoromethyl)-3-pyridinyl)-2,3-dihydro-1-benzofuran-3-yl)-1H-pyrazolo[4,3-c]quinoline-8-carboxamide]
0.724 µM | 0.007 µM | CN(C(=O)c1ccc2nc(N)c3cnn(C)c3c2c1)[C@@H]1COc2cc(-c3cncc(C(F)(F)F)c3)ccc21 [Example 651, 4-amino-N,1-dimethyl-N-((3S)-6-(5-(trifluoromethyl)-3-pyridinyl)-2,3-dihydro-1-benzofuran-3-yl)-1H-pyrazolo[4,3-c]quinoline-8-carboxamide]
0.291 µM | 0.006 µM | CN(C(=O)c1ccc2nc(N)c3cnn(C)c3c2c1)[C@@H]1COc2cc(-c3ccc(C(F)(F)F)cn3)ccc21 [Example 652, 4-amino-N,1-dimethyl-N-((3S)-6-(5-(trifluoromethyl)-2-pyridinyl)-2,3-dihydro-1-benzofuran-3-yl)-1H-pyrazolo[4,3-c]quinoline-8-carboxamide]
0.735 µM | 0.019 µM | CN(C(=O)c1ccc2nc(N)c3cnn(C)c3c2c1)[C@@H]1COc2cc(-c3c(C(F)(F)F)cnn3C)ccc21 [Example 653, 4-amino-N,1-dimethyl-N-((3S)-6-(1-methyl-4-(trifluoromethyl)-1H-pyrazol-5-yl)-2,3-dihydro-1-benzofuran-3-yl)-1H-pyrazolo[4,3-c]quinoline-8-carboxamide]
0.946 µM | 0.028 µM | CN(C(=O)c1ccc2nc(N)c3cnn(C)c3c2c1)[C@@H]1COc2cc(-c3csc(C(F)(F)F)n3)ccc21 [Example 655, 4-amino-N,1-dimethyl-N-((3S)-6-(2-(trifluoromethyl)-1,3-thiazol-4-yl)-2,3-dihydro-1-benzofuran-3-yl)-1H-pyrazolo[4,3-c]quinoline-8-carboxamide]
0.511 µM | 0.006 µM | CN(C(=O)c1ccc2nc(N)c3cnn(C)c3c2c1)[C@@H]1COc2cc(-c3cnc(C(F)(F)F)s3)ccc21 [Example 656, 4-amino-N,1-dimethyl-N-((3S)-6-(2-(trifluoromethyl)-1,3-thiazol-5-yl)-2,3-dihydro-1-benzofuran-3-yl)-1H-pyrazolo[4,3-c]quinoline-8-carboxamide]
0.63 µM | 0.042 µM | CN(C(=O)c1ccc2nc(N)c3cnn(C)c3c2c1)[C@@H]1COc2cc(-c3ccc(OC(F)(F)F)cc3)ccc21 [Example 658, 4-amino-N,1-dimethyl-N-((3S)-6-(4-(trifluoromethoxy)phenyl)-2,3-dihydro-1-benzofuran-3-yl)-1H-pyrazolo[4,3-c]quinoline-8-carboxamide]
0.657 µM | 0.015 µM | CN(C(=O)c1ccc2nc(N)c3cnn(C)c3c2c1)[C@@H]1COc2cc(-c3cc(C(F)(F)F)ccc3F)ccc21 [Example 660, 4-amino-N-((3S)-6-(2-fluoro-5-(trifluoromethyl)phenyl)-2,3-dihydro-1-benzofuran-3-yl)-N,1-dimethyl-1H-pyrazolo[4,3-c]quinoline-8-carboxamide]
0.481 µM | 0.014 µM | CN(C(=O)c1ccc2nc(N)c3cnn(C)c3c2c1)[C@@H]1COc2cc(-c3ccc(C(F)(F)F)cc3F)ccc21 [Example 661, 4-amino-N-((3S)-6-(2-fluoro-4-(trifluoromethyl)phenyl)-2,3-dihydro-1-benzofuran-3-yl)-N,1-dimethyl-1H-pyrazolo[4,3-c]quinoline-8-carboxamide]
